Experiments:
[1] = system: CHO-K1 line 2.14 cells secreting hsCD2; assay: Quantitative assay of hsCD2 expression level in line 2.14 cells cultured with NB-DNJ; assay type: cell-based, Chinese hamster; details: 0.5-2 mM NB-DNJ
Method: For the expression of hsCD2, the Xba I-Bam H1 fragment was sub-cloned into the polylinker of pEE6.hcmv-GS (Bebbington and Hentschel, 1987; Davis et al., 1990). The expression construct (20 μg) was transfected with calcium phosphate into CHO-K1 cells and methionine sulfoximine-resistant clones were selected as described previously (Davis et al., 1990). To detect expression the conventional solid-phase, radioactive inhibition binding assay (Barclay and Ward, 1982) was used. This utilized human sCD2 domain 1 expressed as a fusion protein as described for rat CD2 domain 1 (Driscoll et al., 1991) adsorbed onto vinyl microtitre plates as a binding target and monitored inhibition of the binding of the anti-human CD2 mAb, X3 mAb to the plate; the bound mAb was detected with [I^125 ]-labelled rabbit anti-mouse F(ab'). For large scale production the highest-expressing cell line (line 2.14) was grown to confluence in cell factories (Nunc) and sodium butyrate was then added to a final concentration of 2 mM. The cultures were then left for a further 3-4 weeks prior to harvesting.
In initial optimization tests with NB-DNJ, 2×500 cm^2 flasks (Nunc) were seeded with line 2.14 cells in 75 ml glutamine-free medium GMEM-S (Gibco Ltd, Glasgow, U.K.) 10% Fetal Calf Serum (FCS) containing NB-DNJ at 0 mM, 0.5 mM, 1 mM, 1.5 mM or 2 mM. […]

[2] = biological target: T1, glucosidase I (Cricetulus griseus, UniProt A0A9J7K0I4); assay: Endo H sensitivity of hsCD2 secreted by transfected CHO-K1 cells (line 2.14) cultured with NB-DNJ; assay type: cell-based, Chinese hamster
T1 construct: endogenous in cells; host or cells: CHO-K1, transfected line 2.14 (the transfected gene is hsCD2, not glucosidase I)
T1 sequence (A0A9J7K0I4 1-834): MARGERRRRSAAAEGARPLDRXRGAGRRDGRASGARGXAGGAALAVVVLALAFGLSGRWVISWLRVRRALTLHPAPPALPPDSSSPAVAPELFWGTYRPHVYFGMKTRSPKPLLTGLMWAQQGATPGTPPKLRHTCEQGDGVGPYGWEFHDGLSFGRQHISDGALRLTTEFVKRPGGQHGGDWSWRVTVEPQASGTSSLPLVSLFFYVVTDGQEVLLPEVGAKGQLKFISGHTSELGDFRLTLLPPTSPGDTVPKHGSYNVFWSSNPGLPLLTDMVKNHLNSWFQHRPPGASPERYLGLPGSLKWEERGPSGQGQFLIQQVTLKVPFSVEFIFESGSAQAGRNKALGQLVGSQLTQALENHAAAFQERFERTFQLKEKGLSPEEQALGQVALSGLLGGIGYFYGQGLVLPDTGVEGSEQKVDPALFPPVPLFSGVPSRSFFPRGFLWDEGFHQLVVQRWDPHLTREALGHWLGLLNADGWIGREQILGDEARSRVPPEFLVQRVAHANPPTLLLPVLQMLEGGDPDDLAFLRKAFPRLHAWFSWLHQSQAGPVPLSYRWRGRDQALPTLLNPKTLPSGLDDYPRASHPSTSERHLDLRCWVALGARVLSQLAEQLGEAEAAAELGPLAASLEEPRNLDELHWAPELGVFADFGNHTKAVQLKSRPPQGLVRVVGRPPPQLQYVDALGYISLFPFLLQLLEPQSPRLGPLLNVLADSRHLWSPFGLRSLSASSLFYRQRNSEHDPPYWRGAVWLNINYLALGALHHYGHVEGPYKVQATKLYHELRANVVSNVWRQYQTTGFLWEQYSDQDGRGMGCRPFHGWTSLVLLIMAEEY
Method: In initial optimization tests with NB-DNJ, 2×500 cm^2 flasks (Nunc) were seeded with line 2.14 cells in 75 ml glutamine-free medium GMEM-S (Gibco Ltd, Glasgow, U.K.) 10% Fetal Calf Serum (FCS) containing NB-DNJ at 0 mM, 0.5 mM, 1 mM, 1.5 mM or 2 mM. After 6 days 100 mls of CB2, 10% FCS containing sodium butyrate to give a final concentration of 2 mM and NB-DNJ at 0, 0.5 mM, 1 mM, 1.5 mM or 2 mM was added. Ten days after the addition of the butyrate, 0.5 ml samples of the supernatant were taken for comparison of secretion levels. The cultures were left for a total of 15 days before harvesting the supernatants. When large amounts of endo H treated hsCD2 were required for crystallization, the cells were grown to confluence in cell factories as described above and NB-DNJ was added with the sodium butyrate to a final concentration of 1.5 mM. These cultures were also left for a further 3-4 weeks prior to harvesting.
For analysis of endo H sensitivity after preparation of the hsCD2 in the presence of various concentrations of NB-DNJ, 10 μg aliquots of the purified glycoproteins were incubated with 4, 20 or 100 mU/ml endo H-(Boehringer Mannheim) in 30 μl of 100 mM sodium acetate, pH 5.2. One unit (U) of endo H is the enzyme activity which hydrolyzes one micromole […] of dansyl-Asn-(GlcNAc)2 -(Man)5 within one minute at 37° C., pH 5.5. After incubation overnight at 370 the digested samples were boiled in 1% SDS under reducing conditions prior to electrophoresis in 15% SDS-PAGE gels. For large-scale endo H treatment of hsCD2 for crystallization tests, 4 mgs of the purified glycoprotein was concentrated to 1-2 mg/ml in 0.1 M sodium acetate, pH 5.2, and then digested with 100 mU/ml endo H overnight at 370. […] The eluting protein was determined to be essentially free of contaminating hsCD2 bearing non-endo H sensitive oligosaccharides by SDS-PAGE on a 15% acrylamide gel. […]

## CCCCN1C[C@H](O)[C@@H](O)[C@H](O)[C@H]1CO [NB-DNJ, N-butyl deoxynojirimycin]
[1]
  reduction in expression of hsCD2: three- to four-fold reduction in expression
[2]; N-butyldeoxynojirimycin added to cultures of non-mutant CHO cells
  oligosaccharides of hsCD2 converted to endo H sensitive structures: > 85%
[2]; NB-DNJ 1.5 mM in culture of line 2.14 CHO cells
  inhibition of glucosidase I (judged by endo H sensitivity of hsCD2): complete
[2]; highest concentration of NB-DNJ (2 mM)
  hsCD2 remaining endo H resistant (densitometric analysis of gel): approximately 15%

— patent US6069235A, “Method for carbohydrate engineering of glycoproteins” (Monsanto Company, priority 1994, dated 2000)
